Consider 2 compounds from US20230310435A1, “HOST DEFENSE PROTEIN (HDP) MIMETICS FOR PROPHYLAXIS AND/OR TREATMENT OF INFLAMMATORY DISEASES OF THE GASTROINTESTINAL TRACT” (priority 2015, published 2023).

For test [1], the system named is acetic acid-induced colitis. In kind it is in vivo. As for the experimental part:
Method for FIG. 14. […] Balb/c mice were fasted for 24 hours. Colitis was induced by injecting 200 μL of 4% acetic acid into the rectum. […] Another group of animals were treated with 5-ASA (5-aminosalicylic acid or mesalamine), and another received no treatment. Seven days after the first dose, five cm of intestine were cleaned in cold saline then weighed.
Method for FIG. 15. […] Balb/c mice were fasted for 24 hours. Colitis was induced by injecting 200 μL of 4% acetic acid into the rectum. […] Another group of animals were treated with 5-ASA (5-aminosalicylic acid or mesalamine), and another received no treatment. Seven days after the first dose the colon was examined visually for mucosal injury and scored according to the Table below.
Briefly, colitis was induced by injecting 4% acetic acid into the rectum.

Test [2] relates to DSS-induced colitis. In words: Dextran sulfate sodium (DSS)-induced acute colitis model. In kind it is in vivo, male C57BL/6 mice. As to conditions: end of study; brilacidin 400 mg/kg or 5-ASA 50 mg/kg per rectum Days 7-11. As for the experimental part:
The efficacy of brilacidin administered was investigated in a murine model of chemically-induced acute colitis using dextran sulfate sodium (DSS). This was a different in vivo model of IBD to the testing performed in Examples 16 and 17 (where mucosal injury was induced by using acetic acid). DSS-induced colitis in mice is characterized by weight loss, bloody diarrhea, intestinal ulcerations and infiltrations with granulocytes. In mice, DSS was administered from Day 0 to Day 11, as a 5% (w/v) DSS solution in the drinking water of male C57BL/6 mice (Kim J J, et al., J. Vis. Exp., 2012, 60, 3678), to induce severe murine colitis. On Days 7-11, test compound brilacidin (400 mg/kg) or positive control 5-ASA (50 mg/kg) or water (negative control) were administered as a solution, per rectum. On Days 6, 10 and 11, rectal bleeding was assessed using a Hemoccult® kit and stool consistency was visually assessed; severity of symptoms were scored on a scale of 0 (normal) to 4 (severe). Level of pro-inflammatory cytokines interleukin (IL)-6 and IL-1β in distal colon tissue were determined from excised colons using conventional ELISA methods.

The target in test [3] is human PDE4B2 (Homo sapiens, UniProt Q07343). The test is described as follows: PDE-Glo phosphodiesterase assay, PDE4. In kind it is biochemical. Particulars: 8 ng PDE4B, 1 μM cAMP substrate, 15 min pre-incubation; read-out: IC50, inhibition of PDE4. As for the experimental part: Method for FIG. 1. […] The compounds and PDE4B (BPS Biosciences, San Diego, CA) were mixed and pre-incubated at room temperature for 15 minutes. Substrate was added and the reaction was incubated for 7 minutes at room temperature. Data are presented as luminescence units (RLU).
Method for FIG. 2. Phosphodiesterase inhibition assays of PDE4 were performed, using PMX-60056. The PDE-Glo phosphodiesterase assay (Promega, Madison, WI, USA Catalog No. V1361) was performed using 8 ng of PDE4B (BPS Biosciences, San Diego, CA). […] The compounds and PDE4B were mixed and pre-incubated at room temperature for 15 minutes. Substrate was added and the reaction was incubated for 7 minutes at room temperature. Data are presented as luminescence units (RLU).
Phosphodiesterase type 4 (PDE4) is predominant phosphodiesterase expressed in neutrophils, T cells and macrophages. PDE inhibitors show broad spectrum of anti-inflammatory effects in almost all inflammatory cells. PDE4 inhibitors, block the degradative action of PDE4 on cAMP, thereby increasing intracellular levels of cAMP levels which mediate phosphorylation of protein kinases. […] Data are presented as luminescence units (RLU).
The PDE-Glo phosphodiesterase assay was performed according to the Method described for FIG. 2, using 8 ng of PDE4B, 1 μM cAMP substrate PMX-60056. Data are presented as luminescence units (RLU). […]

For test [4], the target named is human PDE3A (Homo sapiens, UniProt Q14432). The test is described as follows: PDE-Glo phosphodiesterase assay, PDE3. As to conditions: 2.75 ng PDE3A, 1 μM cAMP substrate, 15 min pre-incubation; read-out: IC50, inhibition of PDE3. In kind it is biochemical. The procedure:
Method for FIG. 3. […] The compounds and PDE3A were mixed and pre-incubated at room temperature for 15 minutes. Substrate was added and the reaction was incubated for 7 minutes at room temperature. Data are presented as luminescence units (RLU).
Method for FIG. 4. Phosphodiesterase inhibition assays of PDE3 were performed using PMX-60056. The PDE-Glo phosphodiesterase assay (Promega, Madison, WI, USA Catalog No. V1361) was performed according to manufacturer's instruction using 2.75 ng of PDE3A, 1 μM cAMP substrate and PMX60056. The compounds and PDE3A were mixed and pre-incubated at room temperature for 15 minutes. Substrate was added and the reaction was incubated for 7 minutes at room temperature. Data are presented as luminescence units (RLU).
The compounds and PDE3A were mixed and pre-incubated at room temperature for 15 minutes. Substrate was added and the reaction was incubated. […]
(§1) PDE4 and PDE3 inhibition results in subsequent down-regulation of pro-inflammatory cytokines/chemokines and its regulators, and experiments were conducted to confirm such down-regulation by brilacidin in ex vivo cell-based assays. In these assays, cells were exposed to brilacidin 45 minutes before an 8-hour lipopolysaccharide (LPS) stimulation in the presence of brilacidin; cytokine/enzyme concentrations were determined by ELISA using a standard immunoassay kit.

In test [5] the test system is LPS-induced TNF-α release, NR8383 cells. In words: LPS-induced TNF-α production in NR8383 rat macrophages (ELISA). In kind it is cell-based. As for the experimental part: Method for FIG. 5. TNF-alpha assays were performed using PMX-30063. […] TNF-α concentrations in the supernatants were determined by ELISA using an immunoassay kit specific for rat TNF-α (R&D Systems, Minneapolis, MN) according to manufacturer's instructions.
Method for FIG. 6. TNF-alpha assays were performed using PMX-60056. NR8383 rat macrophage cells were pretreated with PMX-60056 for 45 minutes followed by treatment with 1 μg/ml LPS from E. coli (Sigma, St. Louis, MO) for 8 hours. TNF-α concentrations in the supernatants were determined by ELISA using an immunoassay kit specific for rat TNF-α (R&D Systems, Minneapolis, MN) according to manufacturer's instructions.
The TNF-α inhibition assay was performed according to the Method described for FIG. 5. […] TNF-α concentrations in the supernatants were determined by ELISA using an immunoassay kit specific for rat TNF-α (R&D Systems).
The TNF-α inhibition assay was performed according to the Method described for FIG. 6. NR8383 rat macrophage cells (CRL-2192. ATCC) were pretreated with PMX-60056 for 45 minutes followed by treatment with 1 μg/ml LPS for 8 hours. TNF-α concentrations in the supernatants were determined by ELISA using an immunoassay kit specific for rat TNF-α (R&D Systems).
as §1

In test [6] the test system is LPS-induced MCP-1 release, NR8383 cells. The test is described as follows: LPS-induced MCP-1 release in NR8383 rat macrophages (ELISA). In kind it is cell-based. As for the experimental part: Method for FIG. 7. […] After 8 hours, supernatants were collected for MCP-1 measurement by ELISA. MCP-1 was measured using an immunoassay kit according to manufacturer's instructions (Thermo Scientific, Rockford. IL).
Method for FIG. 8. MCP-1 assays were performed using PMX-60056. Rat macrophages (NR8383) were pretreated with […] with concentrations shown for 45 minutes, followed by 1 μg/ml LPS treatment from E. coli (Sigma, St. Louis, MO) for 8 hours. After 8 hours, supernatants were collected for MCP-1 measurement by ELISA. MCP-1 was measured using an immunoassay kit according to manufacturer's instructions (Thermo Scientific, Rockford, IL).
The MCP-1 inhibition assay was performed according to the Method described for FIG. 7.
The MCP-1 inhibition assay was performed according to the Method described for FIG. 8.
as §1
A general note: An ELISA detects its analyte on a solid surface through an enzyme-linked reagent.

human PDE3A, sequence (Q14432 whole entry): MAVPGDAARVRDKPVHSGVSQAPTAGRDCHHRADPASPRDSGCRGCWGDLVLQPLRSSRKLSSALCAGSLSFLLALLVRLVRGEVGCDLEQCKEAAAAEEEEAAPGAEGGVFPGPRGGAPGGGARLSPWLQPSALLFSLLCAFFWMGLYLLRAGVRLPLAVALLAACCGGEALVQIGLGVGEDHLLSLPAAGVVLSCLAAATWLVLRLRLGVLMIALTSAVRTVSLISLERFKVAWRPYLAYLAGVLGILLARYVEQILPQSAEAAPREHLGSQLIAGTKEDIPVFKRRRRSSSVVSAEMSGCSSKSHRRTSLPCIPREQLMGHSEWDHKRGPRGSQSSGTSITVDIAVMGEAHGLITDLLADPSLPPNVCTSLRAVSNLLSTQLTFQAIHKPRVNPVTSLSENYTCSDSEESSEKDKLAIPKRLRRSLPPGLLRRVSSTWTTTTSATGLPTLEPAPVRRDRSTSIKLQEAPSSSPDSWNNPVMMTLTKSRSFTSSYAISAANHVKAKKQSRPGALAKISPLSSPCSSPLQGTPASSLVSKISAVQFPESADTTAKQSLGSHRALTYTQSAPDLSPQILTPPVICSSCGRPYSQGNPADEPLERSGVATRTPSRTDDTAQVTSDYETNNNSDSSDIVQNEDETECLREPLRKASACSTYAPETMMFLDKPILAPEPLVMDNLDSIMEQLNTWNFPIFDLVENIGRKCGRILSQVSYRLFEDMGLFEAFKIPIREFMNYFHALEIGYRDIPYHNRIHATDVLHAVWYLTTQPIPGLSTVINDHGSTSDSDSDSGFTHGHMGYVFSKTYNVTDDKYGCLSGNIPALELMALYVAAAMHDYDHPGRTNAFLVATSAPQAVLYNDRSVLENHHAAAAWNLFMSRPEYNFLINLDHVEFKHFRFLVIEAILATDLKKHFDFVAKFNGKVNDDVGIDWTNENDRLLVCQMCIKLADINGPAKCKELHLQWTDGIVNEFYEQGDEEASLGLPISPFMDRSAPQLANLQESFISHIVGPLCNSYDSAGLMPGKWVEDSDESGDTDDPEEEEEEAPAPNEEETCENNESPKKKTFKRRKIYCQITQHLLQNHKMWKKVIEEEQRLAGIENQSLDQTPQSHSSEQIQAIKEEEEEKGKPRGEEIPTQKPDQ
human PDE4B2, sequence (Q07343 1-564 isoform Q07343-2): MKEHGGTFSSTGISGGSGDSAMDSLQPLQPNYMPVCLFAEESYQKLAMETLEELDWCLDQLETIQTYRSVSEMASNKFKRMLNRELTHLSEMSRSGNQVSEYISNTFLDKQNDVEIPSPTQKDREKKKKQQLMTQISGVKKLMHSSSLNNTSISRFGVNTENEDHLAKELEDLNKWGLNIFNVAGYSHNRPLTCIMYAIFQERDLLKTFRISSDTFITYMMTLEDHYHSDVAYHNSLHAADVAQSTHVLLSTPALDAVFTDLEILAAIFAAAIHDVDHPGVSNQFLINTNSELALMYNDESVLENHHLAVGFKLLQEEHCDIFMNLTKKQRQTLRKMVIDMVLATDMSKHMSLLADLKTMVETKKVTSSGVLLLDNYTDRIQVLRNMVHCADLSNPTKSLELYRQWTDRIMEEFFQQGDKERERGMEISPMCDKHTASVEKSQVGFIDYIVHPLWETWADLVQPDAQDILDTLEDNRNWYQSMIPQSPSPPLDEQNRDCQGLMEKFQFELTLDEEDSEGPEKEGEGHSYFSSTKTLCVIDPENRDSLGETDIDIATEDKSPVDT

Regarding `Nc1ccc(O)c(C(=O)O)c1` [5-ASA, 5-aminosalicylic acid, reference compound], the “reduction of UC score” value in test [1] (5-ASA group, not significantly) was 67%. Moreover, the “efficacy on ulcerative colitis score (in words)” value in test [1] (5-ASA positive control group) is on record as “no significant efficacy”. For the same compound, in test [2], the “mean reduction in IL-1β in distal colon tissue compared to DSS-treated control group” value amounted to 33% and the “mean reduction in IL-6 in distal colon tissue compared to DSS-treated control group” value amounted to 86%.
What is called IC50 is the concentration that gives 50% inhibition. The term inhibition denotes how much of the control response was suppressed. Take `COc1ccc(NC(=O)[C@H](CCCCN)NC(=O)c2cc(NC(=O)[C@H](CCCCN)NC(=O)c3cc(NC(=O)[C@H](CCCCN)NC(=O)c4cc(NC(=O)[C@@H](N)CCCCN)ccc4OC)ccc3OC)ccc2OC)cc1C(N)=O` [PMX-60056]: the concentration for half-maximal inhibition (IC50) in test [3] was ~3 µM; in test [4], 3 µM. In test [5] (NR8383, 45 min pretreatment, 1 μg/ml LPS 8 h), the “effect on LPS-induced TNF-α production (in words)” value is “inhibited”. In addition, in test [5] (Rattus norvegicus, Macrophage, at 62.5 nM PMX-60056, NR8383, LPS 1 μg/ml 8 h), the inhibition at 0.0625 µM is > 50%. Further, the “effect on MCP-1 induction after LPS stimulation (in words)” value in test [6] (NR8383, 45 min pretreatment, LPS 1 μg/ml 8 h) was “strong inhibition”. Moreover, the “decrease in MCP-1 levels” value in test [6] (at 0.5 μM, NR8383, LPS 1 μg/ml 8 h) is ≥ 25%.
